In general, AC50 refers to the concentration giving half of the maximal activity seen. The EC50 is the midpoint of the concentration-response curve. For orientation: IC50 means the midpoint of a concentration-inhibition curve. One may read the CC50 as the concentration that lowers cell viability or growth by half.

The source made the active and inactive calls.

We go through 38 compounds from ChEMBL document CHEMBL1201862, “PubChem BioAssay data set” (2004).

Assay [1] can be described thus: P. falciparum Dd2 growth inhibitors, dose response, SYBR Green, cherry-picked samples (AID 1159567). In kind it is functional, cell-based.
The target of assay [2] is T1, Heat shock factor protein 1 (Mus musculus, UniProt P38532).
T1 sequence (P38532 whole entry): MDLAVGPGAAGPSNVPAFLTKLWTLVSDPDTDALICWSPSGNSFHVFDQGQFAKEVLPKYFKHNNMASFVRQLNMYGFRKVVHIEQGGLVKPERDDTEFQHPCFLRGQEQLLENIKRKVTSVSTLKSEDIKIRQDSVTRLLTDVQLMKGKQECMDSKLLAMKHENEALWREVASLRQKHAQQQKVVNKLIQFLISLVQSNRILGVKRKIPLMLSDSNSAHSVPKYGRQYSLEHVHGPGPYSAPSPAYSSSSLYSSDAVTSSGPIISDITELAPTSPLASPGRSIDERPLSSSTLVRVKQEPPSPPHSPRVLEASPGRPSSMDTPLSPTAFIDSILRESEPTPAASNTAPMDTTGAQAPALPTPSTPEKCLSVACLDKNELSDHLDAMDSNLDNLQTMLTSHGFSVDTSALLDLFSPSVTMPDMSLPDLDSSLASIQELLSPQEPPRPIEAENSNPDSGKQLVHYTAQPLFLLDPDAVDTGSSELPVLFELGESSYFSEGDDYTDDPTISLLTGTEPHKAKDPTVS
Put plainly: HSF1 potentiators in luciferase reporter cells, confirmation, cell-based, NIH3T3, luminescence, dose retest (AID 435004).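 Also: stress induced by proteasome inhibitor MG132 added 30 min after compound; luciferase reporter driven by HSF1 response element in NIH3T3 cells; actives raise luminescence as potentiators of the MG132 stress response.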 In kind it is functional.

Assay [3] deals with T2, Fatty acid synthase (Homo sapiens, UniProt P49327). In words: FAS thioesterase domain inhibitors, dose response, biochemical, kinetic fluorescence intensity (AID 624326).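 Also: rate of fluorescence rise from hydrolysis of a fluorogenic O-methyl fluorescein ester substrate.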 Format: functional.
Assay [4] in a line: Luminescence Cell-Based Dose Retest to Confirm Inhibitors of Cancer Stem Cells. [Related pubchem assays (depositor defined):AID2717, AID2721]. Format: functional. As to conditions: Homo sapiens.
Assay [5] concerns the target T2, Fatty acid synthase. In words: FAS thioesterase domain inhibitors, dose response, biochemical, endpoint fluorescence intensity, uHTS hits (AID 624327).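 Also: fluorescence from hydrolysis of an O-methyl fluorescein acyl ester substrate by the enzyme.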 Format: functional.
Assay [6] can be described thus: HEp-2 cell cytotoxicity, dose response, cytotoxicity control for RSV inhibitor project, HTS (AID 2410). Format: functional. As to conditions: human respiratory syncytial virus.
The target of assay [7] is T3, Protein skinhead-1 (Caenorhabditis elegans, UniProt P34707).
T3 sequence (P34707 whole entry): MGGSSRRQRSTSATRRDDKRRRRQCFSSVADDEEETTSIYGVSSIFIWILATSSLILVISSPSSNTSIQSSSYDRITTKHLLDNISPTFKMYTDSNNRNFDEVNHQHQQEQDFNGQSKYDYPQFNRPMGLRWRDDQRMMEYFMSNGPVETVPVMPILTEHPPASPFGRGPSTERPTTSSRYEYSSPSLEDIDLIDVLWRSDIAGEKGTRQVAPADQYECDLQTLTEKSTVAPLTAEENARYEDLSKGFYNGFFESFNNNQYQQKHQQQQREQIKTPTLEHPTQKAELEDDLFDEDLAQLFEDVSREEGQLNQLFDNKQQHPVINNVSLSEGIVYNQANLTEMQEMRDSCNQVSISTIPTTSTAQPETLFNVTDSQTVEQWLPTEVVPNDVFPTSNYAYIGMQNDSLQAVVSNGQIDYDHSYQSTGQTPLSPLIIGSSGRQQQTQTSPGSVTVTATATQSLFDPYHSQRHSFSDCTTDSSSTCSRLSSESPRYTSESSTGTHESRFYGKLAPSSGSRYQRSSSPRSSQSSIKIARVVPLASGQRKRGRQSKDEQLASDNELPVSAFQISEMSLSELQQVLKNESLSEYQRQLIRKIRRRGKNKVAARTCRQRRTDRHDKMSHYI
In kind it is functional.

Assay [8] has as its system H4. Put plainly: Luminescence Cell-Based Dose Response HTS to Identify Activators of 5'UTR Stem-Loop Driven Prion Protein mRNA Translation in H4 Neuroglioblastoma Cells. [Related pubchem assays: 1829 (Project Summary), 1814 (Primary HTS)]. Format: functional. To be noted: Homo sapiens.
Assay [9] in a line: Luminescence Cell-Based Dose Response HTS to Identify Activators of Luciferase Translation or Activity in H4 […] Cells. [Related pubchem assays: 1829 (Project Summary), 1814 (Primary HTS)]. In kind it is functional.
The target in assay [10] is T4, Ubiquitin-conjugating enzyme E2 N (Homo sapiens, UniProt P61088).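 Also: Dose-response confirmation in a TR-FRET assay detecting UBC13-driven polyubiquitin chain formation, inhibition measured.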
T4 sequence (P61088 whole entry): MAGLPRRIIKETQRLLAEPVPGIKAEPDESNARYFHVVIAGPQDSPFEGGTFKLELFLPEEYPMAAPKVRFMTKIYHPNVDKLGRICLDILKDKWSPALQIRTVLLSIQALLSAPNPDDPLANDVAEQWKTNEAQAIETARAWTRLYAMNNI
In kind it is functional.

Assay [11] has as its target Cytochrome P450 2C19 (Homo sapiens, UniProt P33261). Put plainly: Cytochrome panel assay with activity outcomes. Panel member name: p450-cyp2c19 Compounds with AC50 equal or less than 10 uM are considered active. As to conditions: read-out: AC50. In kind it is functional.
In assay [12] the target is Cytochrome P450 3A4 (Homo sapiens, UniProt P08684).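 Also: CYP3A4 tested as one member of a cytochrome P450 panel screen.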
Assay [13] can be described thus: inhibitors of clade B AD8 Env fusion, dose response, cell-based, cherry-pick (AID 652062).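 Also: luciferase signal from cell-cell fusion driven by HIV-1 clade B AD8 Env; potency is for inhibitors of fusion seen as a drop in luminescence.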 Format: functional.
Assay [14] can be described thus: ZM109 Env clade C HIV-1 fusion inhibitors, dose response, HeLa effector, CEM target cells, luciferase, cherry-pick (AID 652058). Format: functional, cell-based.
The test system of assay [15] is INS1. Put plainly: beta cell apoptosis inhibitors, cytokine rescue, dose response, luminescence, retest (AID 449756).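 Also: cell death triggered by IL-1 beta plus TNF-alpha plus IFN-gamma mixture; protective hits raise ATP signal compared with cytokine alone wells.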 In kind it is functional, cell-based. To be noted: Rattus norvegicus.
Assay [16] in a line: control 3'UTR Renilla luciferase suppression, dose response, counter-screen for Shn3 inhibitor project, cell-based, Clone20-Shn3RL, cherry-picked (AID 624133). In kind it is functional.
Assay [17] is described as follows: Shn3 3'UTR reporter inhibitors, dose response, cell-based, Clone20 osteoblasts, firefly luciferase, cherry-picked (AID 624132).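 Also: firefly luciferase luminescence from reporter carrying the Shn3 3'UTR in osteoblasts.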 Format: functional.
The nature of assay [18]: inhibitors of HIV Env-driven cell fusion, dose response, cherry-pick (AID 652057). Format: functional, cell-based.

T2 sequence (P49327 whole entry, the tested form may be a part): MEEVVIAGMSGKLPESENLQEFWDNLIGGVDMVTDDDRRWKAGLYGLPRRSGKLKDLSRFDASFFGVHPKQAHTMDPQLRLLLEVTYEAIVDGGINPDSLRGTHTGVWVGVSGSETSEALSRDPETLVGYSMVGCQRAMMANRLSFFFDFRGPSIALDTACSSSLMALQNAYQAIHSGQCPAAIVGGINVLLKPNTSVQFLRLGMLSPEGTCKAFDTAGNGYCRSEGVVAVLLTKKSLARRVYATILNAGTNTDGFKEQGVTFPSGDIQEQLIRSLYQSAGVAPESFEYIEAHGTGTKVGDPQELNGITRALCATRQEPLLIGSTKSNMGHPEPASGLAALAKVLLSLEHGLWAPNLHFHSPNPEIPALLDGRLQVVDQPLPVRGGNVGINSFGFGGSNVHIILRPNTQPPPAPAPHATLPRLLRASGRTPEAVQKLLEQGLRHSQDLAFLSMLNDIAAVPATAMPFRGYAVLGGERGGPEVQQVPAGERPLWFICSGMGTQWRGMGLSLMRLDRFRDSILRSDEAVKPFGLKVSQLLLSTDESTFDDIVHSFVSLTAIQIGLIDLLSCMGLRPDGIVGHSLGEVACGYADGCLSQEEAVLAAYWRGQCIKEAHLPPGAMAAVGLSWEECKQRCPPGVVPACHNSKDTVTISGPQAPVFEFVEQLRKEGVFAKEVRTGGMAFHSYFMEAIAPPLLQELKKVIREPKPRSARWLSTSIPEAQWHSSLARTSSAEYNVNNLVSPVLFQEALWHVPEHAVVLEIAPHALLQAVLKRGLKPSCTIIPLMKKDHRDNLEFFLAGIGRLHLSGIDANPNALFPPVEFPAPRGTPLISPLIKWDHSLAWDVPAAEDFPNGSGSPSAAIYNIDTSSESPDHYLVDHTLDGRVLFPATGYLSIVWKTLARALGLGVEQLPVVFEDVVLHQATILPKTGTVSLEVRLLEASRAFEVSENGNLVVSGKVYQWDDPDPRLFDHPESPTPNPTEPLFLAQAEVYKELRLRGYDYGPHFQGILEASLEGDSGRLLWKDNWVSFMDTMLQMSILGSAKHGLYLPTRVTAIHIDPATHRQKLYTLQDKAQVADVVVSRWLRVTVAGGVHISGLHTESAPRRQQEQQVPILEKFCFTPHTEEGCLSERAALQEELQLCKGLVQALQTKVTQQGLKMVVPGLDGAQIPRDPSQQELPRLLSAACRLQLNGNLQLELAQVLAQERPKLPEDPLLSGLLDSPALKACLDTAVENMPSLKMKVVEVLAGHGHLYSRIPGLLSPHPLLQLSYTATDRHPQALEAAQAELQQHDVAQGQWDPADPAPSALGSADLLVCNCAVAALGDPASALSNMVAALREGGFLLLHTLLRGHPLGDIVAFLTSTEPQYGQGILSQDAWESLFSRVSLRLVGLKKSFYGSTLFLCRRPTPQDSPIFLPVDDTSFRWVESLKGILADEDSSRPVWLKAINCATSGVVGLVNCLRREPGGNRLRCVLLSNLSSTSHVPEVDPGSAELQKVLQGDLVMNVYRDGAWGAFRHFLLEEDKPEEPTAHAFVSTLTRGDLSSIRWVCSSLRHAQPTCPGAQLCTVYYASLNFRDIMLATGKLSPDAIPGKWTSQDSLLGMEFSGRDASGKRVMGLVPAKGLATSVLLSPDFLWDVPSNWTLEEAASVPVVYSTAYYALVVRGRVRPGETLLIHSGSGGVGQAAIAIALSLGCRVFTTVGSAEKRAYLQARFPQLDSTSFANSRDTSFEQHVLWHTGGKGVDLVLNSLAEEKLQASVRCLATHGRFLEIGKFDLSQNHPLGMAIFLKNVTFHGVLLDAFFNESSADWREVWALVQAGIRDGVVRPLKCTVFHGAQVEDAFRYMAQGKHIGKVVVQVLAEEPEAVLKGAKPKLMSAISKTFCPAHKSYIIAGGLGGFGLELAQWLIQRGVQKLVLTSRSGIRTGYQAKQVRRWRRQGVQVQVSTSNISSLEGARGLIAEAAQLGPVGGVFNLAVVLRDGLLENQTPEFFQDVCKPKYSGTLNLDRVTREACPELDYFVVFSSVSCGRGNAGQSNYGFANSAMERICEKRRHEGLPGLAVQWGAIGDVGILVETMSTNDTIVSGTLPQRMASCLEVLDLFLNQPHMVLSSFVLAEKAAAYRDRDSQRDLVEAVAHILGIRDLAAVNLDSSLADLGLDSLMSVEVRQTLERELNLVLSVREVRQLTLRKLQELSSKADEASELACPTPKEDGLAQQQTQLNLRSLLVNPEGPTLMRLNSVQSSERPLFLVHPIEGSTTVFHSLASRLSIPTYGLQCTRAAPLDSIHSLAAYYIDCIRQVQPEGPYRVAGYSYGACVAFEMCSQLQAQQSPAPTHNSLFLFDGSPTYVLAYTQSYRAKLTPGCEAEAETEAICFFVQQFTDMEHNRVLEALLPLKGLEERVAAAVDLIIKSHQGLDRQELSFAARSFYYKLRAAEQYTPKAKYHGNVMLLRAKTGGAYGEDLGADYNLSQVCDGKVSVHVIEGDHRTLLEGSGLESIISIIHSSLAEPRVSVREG
Chain of Cytochrome P450 2C19 (P33261 whole entry): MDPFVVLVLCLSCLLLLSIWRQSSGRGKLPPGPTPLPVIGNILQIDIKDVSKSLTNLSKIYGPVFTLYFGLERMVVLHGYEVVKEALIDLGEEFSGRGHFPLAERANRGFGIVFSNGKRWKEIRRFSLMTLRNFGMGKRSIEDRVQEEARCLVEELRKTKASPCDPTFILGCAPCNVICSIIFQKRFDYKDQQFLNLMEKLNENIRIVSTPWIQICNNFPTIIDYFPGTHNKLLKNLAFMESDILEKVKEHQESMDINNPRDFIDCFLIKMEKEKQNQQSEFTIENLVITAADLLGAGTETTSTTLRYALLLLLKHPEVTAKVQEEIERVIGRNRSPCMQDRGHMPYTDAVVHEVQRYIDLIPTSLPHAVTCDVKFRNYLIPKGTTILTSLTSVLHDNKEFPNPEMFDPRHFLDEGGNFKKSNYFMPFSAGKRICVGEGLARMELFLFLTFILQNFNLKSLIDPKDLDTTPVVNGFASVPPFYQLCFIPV
Chain of Cytochrome P450 3A4 (P08684 whole entry, the tested form may be a part): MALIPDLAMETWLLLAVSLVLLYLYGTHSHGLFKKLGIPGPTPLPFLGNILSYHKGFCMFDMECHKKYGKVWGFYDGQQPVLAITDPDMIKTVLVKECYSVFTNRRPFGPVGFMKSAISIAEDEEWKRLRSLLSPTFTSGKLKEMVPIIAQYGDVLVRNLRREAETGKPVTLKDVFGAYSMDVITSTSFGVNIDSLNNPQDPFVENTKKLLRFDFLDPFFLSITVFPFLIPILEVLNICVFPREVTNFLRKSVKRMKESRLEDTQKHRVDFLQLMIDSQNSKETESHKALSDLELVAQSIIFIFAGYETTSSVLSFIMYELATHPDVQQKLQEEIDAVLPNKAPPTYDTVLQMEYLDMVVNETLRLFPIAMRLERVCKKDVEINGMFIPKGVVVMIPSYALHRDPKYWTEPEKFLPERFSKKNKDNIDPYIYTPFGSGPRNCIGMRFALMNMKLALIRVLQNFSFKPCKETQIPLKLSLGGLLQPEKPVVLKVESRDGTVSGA

Turning to `CCCNC(=O)N1[C@H](CO)[C@H](c2ccc(-c3ccc(C#N)cc3)cc2)[C@@H]1CNC`, in [1], the AC50 was 11.5 µM (active).
Regarding `O=C(Nc1ccc(Nc2ccccc2)cc1)c1cc([N+](=O)[O-])ccc1Cl`, the 50% effective concentration (EC50) in assay [2] is 5.63 µM (active). Further, the IC50 in assay [3] was 14 µM (active); in assay [5], 11.1 µM (active). The AC50 in assay [4] is 9.07 µM (active).
For the compound `CCCCOC(=O)c1ccc(NC(=O)CN2C(=O)NC3(CCCCCC3)C2=O)cc1`, the CC50 in assay [6] was 31.9 µM (active).
For `O=C(CSc1nnc(COc2ccc(Cl)cc2)o1)NC1CC2CCC1C2` (centres undefined), the IC50 in assay [7] was > 100 µM (inactive).
For the compound `C=CCN1C(=O)C2(C(C(=O)OCC)=C(N)Oc3ccccc32)C2=C1CCCC2=O` (centres undefined), in assay [7], the IC50 was > 100 µM (inactive).
With `CC(=O)C1=C(C)NC(SCC(=O)c2ccc(Cl)cc2)=C(C#N)C1CC(C)C` (centres undefined), in assay [6], the half-maximal cytotoxic concentration (CC50) is 23.4 µM (active).
Regarding `CCc1ccc(NC2=NC(=O)/C(=C/c3cc(OC)c(OC)c(OC)c3)S2)cc1`, in assay [6], the 50% cytotoxic concentration (CC50) is 21.2 µM (active).
As for `O=C(C1CC(c2ccc(F)cc2)=NO1)N1CCCCC1` (centres undefined), the half-maximal effective concentration (EC50) in assay [8] was 33.4 µM (active); in assay [9] it was 5.56 µM (active).
Regarding `COc1ccc2cc(N3CCCC3=O)ccc2c1`, the IC50 in [7] was > 100 µM (inactive).
As to `COc1ccc(-c2cc(-c3cccs3)nc(OC)c2C#N)cc1OC`, the IC50 in [10] was > 20 µM (inactive).
As to `O=C(Nc1ccc(Br)cc1)c1ccc(CSC2=NCCS2)cc1`, the half-maximal activity concentration (AC50) in assay [11] was 11.2 µM (inconclusive); in assay [12], 3.55 µM (inconclusive). Besides, the concentration for a half-maximal effect (EC50) in assay [8] is 99.7 µM (active); in assay [9], 3.81 µM (active).
With `C/C=C/c1ccc2c(c1)[C@H]1[C@H](CCN1S(=O)(=O)c1cccc(F)c1)[C@@H](CO)N2`, the AC50 in assay [1] is 4.13 µM (active).
With `O=C(CCN1CCCCCC1)Nc1ccccc1F`, in assay [7], the IC50 is > 100 µM (inactive).
`COC(=O)[C@H](CCSC)NC(=O)Nc1cccc(C)c1C`: in assay [2], the EC50 was > 260 µM (inactive).
In the case of `Nc1c2c(nc3ccc(Br)cc13)N(Cc1ccccc1)CC2`, the CC50 in [6] is 9.17 µM (active).
With `c1ccc2c(C[C@@H]3CNCCN3CCC34CC5CC(CC(C5)C3)C4)cccc2c1`, in assay [10], the IC50 was > 20 µM (inactive).
Same read-out and setting: next, `COc1ccc(C(CCN2CCCC2)c2c(OC)cc(OC)c3c(-c4ccccc4)cc(=O)oc23)cc1` (centres undefined): > 20 µM (inactive).
Turning to `Cc1cccc(C)c1NC(=O)N1CCN(c2nc3ccccc3s2)CC1`, the AC50 in assay [13] is 10 µM (active); in assay [14], 1.05 µM (active).
`Nc1cc(-c2nc3ncccc3o2)ccc1Cl`: the values for the EC50 in [8] and in assay [9] were > 120 µM (not active) and 4.25 µM (active), respectively.
As for `COc1ccccc1-c1oc2ccccc2c1C#CC1(N)CCCCC1`, the IC50 in assay [10] was > 20 µM (inactive). Moreover, the AC50 in [4] is 5.52 µM (active).
On to `CC(=O)c1ccc(NC(S)=NCc2cccnc2)cc1`, for which the AC50 in assay [15] is 5.94 µM (active).
Take `Cc1ccc(CSc2nnc(-c3ccco3)o2)cc1`: the IC50 in assay [7] was 22 µM (active).
In the case of `Cc1ccc(C2CC(c3cccc(Br)c3)n3nc(N)nc3N2)cc1` (centres undefined), in [15], the AC50 was 34.1 µM (active).
In the case of `CCCN(C)C[C@H]1Oc2ncc(C#Cc3ccccc3OC)cc2C(=O)N([C@H](C)CO)C[C@H]1C`, the AC50 in assay [1] was 3.28 µM (active).
For the compound `O=c1c2ccccc2ccc2ccccc12`, in assay [7], the half-inhibitory concentration (IC50) was 21.3 µM (active).
With `Cc1sc2ncnc(N3CCN(S(=O)(=O)c4ccccc4)CC3)c2c1C`, the half-maximal activity concentration (AC50) was 3.43 µM (active) in assay [16], 2.3 µM (active) in assay [17] and 4.3 µM (active) in assay [15].
In the case of `CO[C@@H]1CN(C)C(=O)c2ccc(NC(=O)c3ccc(F)cc3)cc2OC[C@@H](C)N(C(=O)c2ccc(F)cc2)C[C@@H]1C`, the AC50 in assay [1] was 4.29 µM (active).
Still for that read-out and setting: with `O=C(c1ccccc1F)N1C[C@H]2[C@@H](c3ccccc31)[C@@H](CO)N2C(=O)c1ccc(F)cc1` the figure was 35.2 µM (active).
With `NC1=NC[C@@H](Cc2ccc(O)cc2)N1CCc1cc(C(F)(F)F)cc(C(F)(F)F)c1`, the IC50 in assay [10] was > 20 µM (inactive).
Consider `C=C1CCC[C@]2(C)C[C@H]3OC(=O)C(CNCCN(C)C)[C@H]3CC12` (some centres undefined), for which the IC50 in [7] was > 100 µM (inactive).
For the compound `CO[C@H]1CN(C)C(=O)c2ccc(NC(=O)C3CCC3)cc2OC[C@H](C)N(CC2CCCCC2)C[C@@H]1C`, the half-maximal activity concentration (AC50) is 592 nM (active) in assay [18], 1.83 µM (active) in assay [13] and 1.25 µM (active) in assay [14].
Take `Cc1ccc(S(=O)(=O)N=C(N)Nc2nc(C)c3ccc(C)cc3n2)cc1`: in assay [6], the half-maximal cytotoxic concentration (CC50) is > 50 µM (active).
As to `[O-][S+](Cc1cc(Sc2ccccc2)nc(-c2ccccc2)n1)c1ccccc1` (centres undefined), the EC50 in assay [2] was > 260 µM (inactive).
Same read-out and setting: next, `COc1ccc(-c2[nH]ncc2CN2CCN(C3CCCCC3)C(=O)C2)cc1F`: 216 µM (active).
Take `O=C(CCc1nc(O)c2ccccc2n1)NCCN1C(=O)S/C(=C\c2ccccc2Cl)C1=O`: the CC50 in [6] is 23.9 µM (active).
Consider `C[C@H](CO)N1C[C@H](C)[C@H](CN(C)S(=O)(=O)c2cccs2)Oc2ccc(NC(=O)Nc3ccccc3)cc2CC1=O`, for which the half-maximal activity concentration (AC50) in [18] is 395 nM (active); in assay [13], 1.34 µM (active); in assay [14], 0.579 µM (active).
`Cc1cc(N2CCOCC2)nc2ccc(NC(=O)C3CCC(C)CC3)cc12` (centres undefined): in [7], the IC50 was > 100 µM (inactive).
For `CC(=O)Nc1cccc(OCC(=O)NS(=O)(=O)c2ccc(Cl)cc2)c1`, the IC50 in assay [7] is > 100 µM (inactive).
